Test results taken from US20240109917A1 (ACTELION PHARMACEUTICALS LTD, priority 2020, published 2024).

Target: His6-TEV-PDGFRβ (557-1016) (Homo sapiens (Human), UniProt P09619)
Test: PDGFRβ HTRF Assay
Assay type: biochemical
Conditions: read-out: PDGFR HTRF IC50
Summary of the method: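 Human PDGFRβ (557-1016) pre-incubated with compound for 30 min at RT in pH 7.5 HEPES/MgCl2/EGTA/Brij-35/DTT buffer. Reaction started with ATP and TK-biotin peptide, run 3 h at RT, then quenched with EDTA-containing Eu-cryptate antibody/streptavidin-XL665. HTRF 665/620 nm ratio read after 60 min; percent inhibition relative to DMSO and 10 μM imatinib controls.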

Chain of His6-TEV-PDGFRβ (557-1016) (P09619 557-1016): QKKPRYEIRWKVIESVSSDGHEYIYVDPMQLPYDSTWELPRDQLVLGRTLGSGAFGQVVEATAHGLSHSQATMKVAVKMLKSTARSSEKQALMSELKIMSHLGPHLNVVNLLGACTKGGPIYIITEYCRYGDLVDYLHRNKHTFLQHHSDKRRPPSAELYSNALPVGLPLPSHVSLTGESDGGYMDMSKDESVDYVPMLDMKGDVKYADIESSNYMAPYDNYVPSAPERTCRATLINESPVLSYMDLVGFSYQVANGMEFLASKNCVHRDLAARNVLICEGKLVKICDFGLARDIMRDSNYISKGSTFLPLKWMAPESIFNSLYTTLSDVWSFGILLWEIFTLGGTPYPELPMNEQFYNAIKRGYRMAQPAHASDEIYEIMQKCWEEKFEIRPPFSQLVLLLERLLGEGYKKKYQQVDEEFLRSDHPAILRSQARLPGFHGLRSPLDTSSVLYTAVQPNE

| SMILES | IC50 |
| --- | --- |
| Cc1ncc(C(=O)NCCN2CCC23CCC3)cc1NC(=O)c1cnn2cc(-c3cnn(C)c3C)sc12 [Example 169, N-(5-((2-(1-azaspiro[3.3]heptan-1-yl)ethyl)carbamoyl)-2-methylpyridin-3-yl)-2-(1,5-dimethyl-1H-pyrazol-4-yl)pyrazolo[5,1-b]thiazole-7-carboxamide] | 0.3 nM |
| CC(=O)N1CCN(CCNC(=O)c2cnc(C)c(NC(=O)c3cnn4cc(-c5cnn(C)c5)sc34)c2)CC1 [Example 129, N-(5-((2-(4-acetylpiperazin-1-yl)ethyl)carbamoyl)-2-methylpyridin-3-yl)-2-(1-methyl-1H-pyrazol-4-yl)pyrazolo[5,1-b]thiazole-7-carboxamide] | 2.9 nM |
| Cc1ncc(C(=O)NCCN2C3CCCC2CCC3)cc1NC(=O)c1cnn2cc(-c3cnn(C)c3)sc12 [Example 4, N-(5-((2-(9-azabicyclo[3.3.1]nonan-9-yl)ethyl)carbamoyl)-2-methylpyridin-3-yl)-2-(1-methyl-1H-pyrazol-4-yl)pyrazolo[5,1-b]thiazole-7-carboxamide] | 0.3 nM |
| Cc1ncc(C(=O)NCCN2CCOCC23CCC3)cc1NC(=O)c1cnn2cc(-c3cnn(C)c3)sc12 [Example 117, N-(5-((2-(8-oxa-5-azaspiro[3.5]nonan-5-yl)ethyl)carbamoyl)-2-methylpyridin-3-yl)-2-(1-methyl-1H-pyrazol-4-yl)pyrazolo[5,1-b]thiazole-7-carboxamide] | 0.4 nM |
| Cc1ncc(C(=O)NCCN2CCCC2(C)C)cc1NC(=O)c1cnn2cc(-c3cnn(C)c3)sc12 [Example 8, N-(5-((2-(2,2-dimethylpyrrolidin-1-yl)ethyl)carbamoyl)-2-methylpyridin-3-yl)-2-(1-methyl-1H-pyrazol-4-yl)pyrazolo[5,1-b]thiazole-7-carboxamide] | 0.4 nM |
| Cc1ncc(C(=O)NCCN2CCCC23COC3)cc1NC(=O)c1cnn2cc(-c3c(C)nn(C)c3C)sc12 [Example 179, N-(5-((2-(2-oxa-5-azaspiro[3.4]octan-5-yl)ethyl)carbamoyl)-2-methylpyridin-3-yl)-2-(1,3,5-trimethyl-1H-pyrazol-4-yl)pyrazolo[5,1-b]thiazole-7-carboxamide] | 1 nM |
| Cc1ncc(C(=O)NCCN2CCC3(CC3)C2)cc1NC(=O)c1cnn2cc(-c3cn(C)cn3)sc12 [Example 162, N-(5-((2-(5-azaspiro[2.4]heptan-5-yl)ethyl)carbamoyl)-2-methylpyridin-3-yl)-2-(1-methyl-1H-imidazol-4-yl)pyrazolo[5,1-b]thiazole-7-carboxamide] | 0.4 nM |
| Cc1ncc(C(=O)NCCN2CCCC2(C)C)cc1NC(=O)c1cnn2cc(-c3ccncc3)sc12 [Example 7, N-(5-((2-(2,2-dimethylpyrrolidin-1-yl)ethyl)carbamoyl)-2-methyl-pyridin-3-yl)-2-(pyridin-4-yl)pyrazolo[5,1-b]thiazole-7-carboxamide] | 0.5 nM |
| COCCn1cc(-c2cn3ncc(C(=O)Nc4cc(NC(=O)CCN5CCC56CCC6)cnc4C)c3s2)cn1 [Example 95, N-(5-(3-(1-azaspiro[3.3]heptan-1-yl)propanamido)-2-methylpyridin-3-yl)-2-(1-(2-methoxyethyl)-1H-pyrazol-4-yl)pyrazolo[5,1-b]thiazole-7-carboxamide] | 0.4 nM |
| Cc1ncc(C(=O)NCCN2CCCOCC2)cc1NC(=O)c1cnn2cc(-c3cnn(C)c3)sc12 [Example 121, N-(5-((2-(1,4-oxazepan-4-yl)ethyl)carbamoyl)-2-methylpyridin-3-yl)-2-(1-methyl-1H-pyrazol-4-yl)pyrazolo[5,1-b]thiazole-7-carboxamide] | 0.4 nM |
| Cc1ncc(C(=O)NCCN2CCC3(CC3)C2)cc1NC(=O)c1cnn2cc(-c3ccncc3)sc12 [Example 153, N-(5-((2-(5-azaspiro[2.4]heptan-5-yl)ethyl)carbamoyl)-2-methylpyridin-3-yl)-2-(pyridin-4-yl)pyrazolo[5,1-b]thiazole-7-carboxamide] | 0.4 nM |
| Cc1ncc(C(=O)NCCN2CCCC2(C)C)cc1NC(=O)c1cnn2cc(-c3ccn(C)n3)sc12 [Example 9, N-(5-((2-(2,2-dimethylpyrrolidin-1-yl)ethyl)carbamoyl)-2-methylpyridin-3-yl)-2-(1-methyl-1H-pyrazol-3-yl)pyrazolo[5,1-b]thiazole-7-carboxamide] | 0.3 nM |
| COCCn1cc(-c2cn3ncc(C(=O)Nc4cc(C(=O)NCCN5CC6CCC5CC6)cnc4C)c3s2)cn1 [Example 142, N-(5-((2-(2-azabicyclo[2.2.2]octan-2-yl)ethyl)carbamoyl)-2-methylpyridin-3-yl)-2-(1-(2-methoxyethyl)-1H-pyrazol-4-yl)pyrazolo[5,1-b]thiazole-7-carboxamide] | 0.5 nM |
| COCCn1nc(C)c(-c2cn3ncc(C(=O)Nc4cc(NC(=O)CCN5CC6CCC(C5)O6)cnc4C)c3s2)c1C [Example 102, N-(5-(3-(8-oxa-3-azabicyclo[3.2.1]octan-3-yl)propanamido)-2-methylpyridin-3-yl)-2-(1-(2-methoxyethyl)-3,5-dimethyl-1H-pyrazol-4-yl)pyrazolo[5,1-b]thiazole-7-carboxamide] | 1.3 nM |
| Cc1ncc(NC(=O)CCCN2CCC[C@@H]2C)cc1NC(=O)c1cnn2cc(-c3cnn(C)c3)sc12 [Example 106, (S)-2-(1-methyl-1H-pyrazol-4-yl)-N-(2-methyl-5-(4-(2-methylpyrrolidin-1-yl)butanamido)pyridin-3-yl)pyrazolo[5,1-b]thiazole-7-carboxamide] | 1.3 nM |
| Cc1ncc(C(=O)NCCN2CC(C)(C)C2)cc1NC(=O)c1cnn2cc(-c3cccnc3)sc12 [Example 158, N-(5-((2-(3,3-dimethylazetidin-1-yl)ethyl)carbamoyl)-2-methylpyridin-3-yl)-2-(pyridin-3-yl)pyrazolo[5,1-b]thiazole-7-carboxamide] | 0.9 nM |
| Cc1ncc(C(=O)NCCN2CCCC2(C)C)cc1NC(=O)c1cnn2cc(-c3cnn(CCO)c3)sc12 [Example 140, N-(5-((2-(2,2-dimethylpyrrolidin-1-yl)ethyl)carbamoyl)-2-methylpyridin-3-yl)-2-(1-(2-hydroxyethyl)-1H-pyrazol-4-yl)pyrazolo[5,1-b]thiazole-7-carboxamide] | 0.5 nM |
| Cc1ncc(NC(=O)NCC2CCN(C(C)C)CC2)cc1NC(=O)c1cnn2cc(-c3cnn(C)c3)sc12 [Example 109, N-(5-(3-((1-isopropylpiperidin-4-yl)methyl)ureido)-2-methylpyridin-3-yl)-2-(1-methyl-1H-pyrazol-4-yl)pyrazolo[5,1-b]thiazole-7-carboxamide] | 38.9 nM |
| Cc1ncc(C(=O)NCCN2CC(C)(C)C2)cc1NC(=O)c1cnn2cc(-c3cn(C)cn3)sc12 [Example 161] | 0.5 nM |
| Cc1ncc(C(=O)NCCN2CC3CCC2CC3)cc1NC(=O)c1cnn2cc(-c3cnn(C)c3C)sc12 [Example 171, N-(5-((2-(2-azabicyclo[2.2.2]octan-2-yl)ethyl)carbamoyl)-2-methylpyridin-3-yl)-2-(1,5-dimethyl-1H-pyrazol-4-yl)pyrazolo[5,1-b]thiazole-7-carboxamide] | 0.3 nM |
| Cc1ncc(C(=O)NCCN2CCCC2(C)C)cc1NC(=O)c1cnn2cc(-c3cnn(C4CC4)c3)sc12 [Example 6, 2-(1-cyclopropyl-1H-pyrazol-4-yl)-N-(5-((2-(2,2-dimethylpyrrolidin-1-yl)ethyl)carbamoyl)-2-methylpyridin-3-yl)pyrazolo[5,1-b]thiazole-7-carboxamide] | 0.2 nM |
